According to ChEMBL document CHEMBL1151011, “Heterocyclic analogs of the benzolactam nucleus of the non-peptidic growth hormone secretagogue L-692,429” (1995):
Calls of active or inactive are those of the source. The calls are words filed in the database; no cut-off is given here.

Species: Rattus norvegicus
Assay: Effective dose of compound required for in vitro effect on growth hormone release was measured in rat pituitary cell assay; IA means compound is inactive at 20 ug/mL concentration
Format: functional
Conditions: Pituitary gland cell

CC1=NC(NC(=O)CC(C)(C)N)C(=O)N(Cc2ccc(-c3ccccc3-c3nn[nH]n3)cc2)c2ccccc21 (configuration not stated) was tested, and the ED50 was “inactive”.

Species: Rattus norvegicus
Assay: Effective dose of compound required for in vitro effect on growth hormone release was measured in rat pituitary cell assay
Format: functional, Pituitary gland cell
Conditions: Rattus norvegicus, Pituitary gland cell; read-out: ED50 (the source's name)

Point of comparison: CC(C)(N)CC(=O)N[C@@H]1CC(=O)c2ccccc2N(Cc2ccc(-c3ccccc3-c3nn[nH]n3)cc2)C1=O, EC50 2.7 µM. Against it:
- CC(C)(N)CC(=O)N[C@@H]1COc2ccccc2N(Cc2ccc(-c3ccccc3-c3nn[nH]n3)cc2)C1=O — 23-fold lower, 0.12 µM
- CC(C)(N)CC(=O)N[C@@H]1CCc2ccccc2N(Cc2ccc(-c3ccccc3-c3nn[nH]n3)cc2)C1=O — 45-fold lower, 0.06 µM
- CC(C)(N)CC(=O)N[C@@H]1CSc2ccccc2N(Cc2ccc(-c3ccccc3-c3nn[nH]n3)cc2)C1=O — 27-fold lower, 0.1 µM
- CC(C)(N)CC(=O)N[C@@H]1CC(O)c2ccccc2N(Cc2ccc(-c3ccccc3-c3nn[nH]n3)cc2)C1=O (some centres not stated) — within 1.5-fold, 4 µM
- CC(C)(N)CC(=O)N[C@@H]1CS(=O)(=O)c2ccccc2N(Cc2ccc(-c3ccccc3-c3nn[nH]n3)cc2)C1=O — 2.7-fold lower, 1 µM
- CC(C)(N)CC(=O)N[C@@H]1C[S+]([O-])c2ccccc2N(Cc2ccc(-c3ccccc3-c3nn[nH]n3)cc2)C1=O (stereo in doubt) — within 1.5-fold, 3 µM
- CC(C)(N)CC(=O)NC1Cc2ccccc2N(Cc2ccc(-c3ccccc3-c3nn[nH]n3)cc2)C1=O (configuration not stated) — within 1.5-fold, 2 µM
- CC(C)(N)CC(=O)NC1CCc2ccccc2N(Cc2ccc(-c3ccccc3-c3nn[nH]n3)cc2)C1=O [L-158432] — 23-fold lower, 0.12 µM
- CC(C)(N)CC(=O)NC1Sc2ccccc2N(Cc2ccc(-c3ccccc3-c3nn[nH]n3)cc2)C1=O (configuration not stated) — 5.4-fold lower, 0.5 µM

Same assay, conditions: read-out: ED50 (the source's name)

Work on CC(C)(N)CC(=O)N[C@@H]1C[S+]([O-])c2ccccc2N(Cc2ccc(-c3ccccc3-c3nn[nH]n3)cc2)C1=O (stereo in doubt; 22a) yielded an EC50 of 4 µM.
